Laboratory results taken from EPA's ToxValDB 9.5 (doi:10.2903/j.efsa.2017.4912).
Converted amounts (≈) assume the structure as drawn.

Assays:
Typhlodromus pyri = assay: LR50; higher = less toxic; settings: not reported; duration: 7 days; mortality
Tagia sp. = settings: chronic/long-term; duration: 56 days
Folsomia candida = settings: chronic/long-term; duration: 28 days
Oncorhynchus mykiss = settings: acute; duration: 96 hours; mortality
Anas platyrhynchos = settings: reproductive; duration: 21 weeks; M; reproduction
Cyprinodon variegatus = settings: chronic/long-term; duration: 28 days; other
Rattus norvegicus = settings: for NOAEL: body weight
Apis mellifera = settings: acute, duration: 48 hours, mortality

SMILES	LR50 (Typhlodromus pyri)	NOEC (Tagia sp.)	NOAEL (Oryctolagus sp.; reproduction developmental, mortality)	NOEC (Folsomia candida)	LC50 (Oncorhynchus mykiss)	NOEL (Anas platyrhynchos)	NOEC (Cyprinodon variegatus)	LD50 (Rattus norvegicus; acute, oral, mortality)	NOAEL (Rattus norvegicus; chronic, duration: 2 years)	NOAEL (Rattus norvegicus; reproduction developmental)	NOAEL (Rattus norvegicus; subchronic, duration: 90 days, oral)	LD50 (Colinus virginianus; acute, oral, mortality)	NOEL (Colinus virginianus; reproduction developmental, duration: 23 weeks, reproduction)	LD50 (Apis mellifera; dermal)	LD50 (Apis mellifera; oral, unspecified)	NOAEL (Oryctolagus sp.; developmental, development)
COC(=O)c1ccccc1S(=O)(=O)NC(=O)N(C)c1nc(C)nc(OC)n1 [Tribenuron-methyl]	> 29.6 g/ha	3.2 mg/kg	20 mg/kg-day	30.8 mg/kg	738 µg/mL (≈ 1870 µM)	21 mg/kg-day	11.9 mg/L	> 5000 mg/kg-day	1 mg/kg-day	2 mg/kg-day	7 mg/kg-day	> 2250 mg/kg-day	21 mg/kg-day	> 98.4 µg/piece	> 9.1 µg/piece	–
COC(=O)c1ccccc1S(=O)(=O)NC(=O)Nc1nc(C)nc(OC)n1 [Metsulfuron-methyl]	–	–	–	–	–	–	–	–	22.4 mg/kg-day	–	–	–	–	–	–	25 mg/kg-day
